Laboratory results published in US20120028995A1, “NOVEL COMPOUNDS FOR MEDICAL USE AS PEPTIDASE EFFECTORS” (IMTM GMBH, priority 2010, published 2012).
Where two headings read alike, the source gives them in different places.

What was measured:
[1] = molecular target: T1, purified, recombinant human DPIV (Homo sapiens, UniProt P27487); assay: Inhibition of enzymatic activity of DPIV (fluorogenic substrate hydrolysis); format: biochemical; settings: highest test item concentration 25 μM; for IC50: read-out: meas. IC50 (DPIV)
T1 construct: made in house; host or cells: Sf9 insect cells
T1 sequence (P27487 whole entry): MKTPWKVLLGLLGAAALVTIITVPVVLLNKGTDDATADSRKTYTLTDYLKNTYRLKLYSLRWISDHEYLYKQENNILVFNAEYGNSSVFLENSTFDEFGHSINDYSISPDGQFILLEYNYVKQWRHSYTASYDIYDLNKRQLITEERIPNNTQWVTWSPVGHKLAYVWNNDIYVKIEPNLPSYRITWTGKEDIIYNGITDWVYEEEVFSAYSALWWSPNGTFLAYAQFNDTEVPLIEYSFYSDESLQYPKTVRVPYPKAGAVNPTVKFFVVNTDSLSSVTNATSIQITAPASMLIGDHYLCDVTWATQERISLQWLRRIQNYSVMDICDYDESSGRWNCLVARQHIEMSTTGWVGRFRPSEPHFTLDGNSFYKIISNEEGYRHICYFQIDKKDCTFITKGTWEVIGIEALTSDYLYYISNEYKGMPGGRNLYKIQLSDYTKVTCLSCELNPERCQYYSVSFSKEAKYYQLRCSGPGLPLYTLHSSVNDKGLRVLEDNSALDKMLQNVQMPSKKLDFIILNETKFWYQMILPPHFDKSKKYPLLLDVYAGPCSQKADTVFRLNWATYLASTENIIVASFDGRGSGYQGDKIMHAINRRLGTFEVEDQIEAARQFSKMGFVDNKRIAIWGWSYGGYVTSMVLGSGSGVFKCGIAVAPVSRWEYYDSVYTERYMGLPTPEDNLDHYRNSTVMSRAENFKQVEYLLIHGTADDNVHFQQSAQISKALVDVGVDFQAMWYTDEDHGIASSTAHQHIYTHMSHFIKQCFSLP
Method: (§1) The inhibition of the enzymatic activity of DPIV and related enzymes was measured by using purified, recombinant human DPIV (purified from transfected Sf9 cells, final enzyme concentration approx. 1 nM) as well as purified, recombinant DP8 and DP9 (purchased from Biomol). The assay was performed in 0.05M TRIS/HCl puffer pH 7.5, supplemented with 0.05% Triton (v/v), 0.05% BSA (w/v), 2 mM MgCl2.
(§2) The enzymatic activity of DPIV was assessed by the hydrolysis of the fluorogenic substrates H-Gly-Pro-4-amino-7-methyl coumarine (abbreviation of fluorogenic group AMC; purchased from Bachem) or (Ala-Pro)2-Rhodamine 110 (abbreviation R110). The final substrate concentrations were 50 μM or 1 μM, respectively.
(§3) The assay was performed in white microtitre plates for fluorescence measurements. The test items, substrate and enzyme were diluted in assay buffer. The highest test item concentration used was 25 μM. For the calculation of IC50 values, at least 16 log 2-dilutions of each test item were analyzed. As controls, the DPIV activity in the absence of test items as well as the spontaneous hydrolysis of the substrate was determined.
(§4) The release of the fluorescent hydrolysis product AMC was measured at an excitation wavelength of 380 nm and an emission wavelength of 460 nm by using a microtitre fluorescence reader immediately after substrate addition as well as after 30, 60 and 120 min. The hydrolysis of the substrate (Ala-Pro)2-Rhodamine 110 was determined at an exitation wavelength of 488 nm and emission wavelength of 530 nm.

[2] = molecular target: T2, aminopeptidase N (APN), purified recombinant human enzyme (Homo sapiens, UniProt P15144); assay: Inhibition of enzymatic activity of aminopeptidase N (fluorogenic substrate hydrolysis); format: biochemical; settings: highest test item concentration 25 μM; for IC50: read-out: meas. IC50 (APN)
T2 construct: made in house; host or cells: ECV cells (transfected)
T2 sequence (P15144 whole entry): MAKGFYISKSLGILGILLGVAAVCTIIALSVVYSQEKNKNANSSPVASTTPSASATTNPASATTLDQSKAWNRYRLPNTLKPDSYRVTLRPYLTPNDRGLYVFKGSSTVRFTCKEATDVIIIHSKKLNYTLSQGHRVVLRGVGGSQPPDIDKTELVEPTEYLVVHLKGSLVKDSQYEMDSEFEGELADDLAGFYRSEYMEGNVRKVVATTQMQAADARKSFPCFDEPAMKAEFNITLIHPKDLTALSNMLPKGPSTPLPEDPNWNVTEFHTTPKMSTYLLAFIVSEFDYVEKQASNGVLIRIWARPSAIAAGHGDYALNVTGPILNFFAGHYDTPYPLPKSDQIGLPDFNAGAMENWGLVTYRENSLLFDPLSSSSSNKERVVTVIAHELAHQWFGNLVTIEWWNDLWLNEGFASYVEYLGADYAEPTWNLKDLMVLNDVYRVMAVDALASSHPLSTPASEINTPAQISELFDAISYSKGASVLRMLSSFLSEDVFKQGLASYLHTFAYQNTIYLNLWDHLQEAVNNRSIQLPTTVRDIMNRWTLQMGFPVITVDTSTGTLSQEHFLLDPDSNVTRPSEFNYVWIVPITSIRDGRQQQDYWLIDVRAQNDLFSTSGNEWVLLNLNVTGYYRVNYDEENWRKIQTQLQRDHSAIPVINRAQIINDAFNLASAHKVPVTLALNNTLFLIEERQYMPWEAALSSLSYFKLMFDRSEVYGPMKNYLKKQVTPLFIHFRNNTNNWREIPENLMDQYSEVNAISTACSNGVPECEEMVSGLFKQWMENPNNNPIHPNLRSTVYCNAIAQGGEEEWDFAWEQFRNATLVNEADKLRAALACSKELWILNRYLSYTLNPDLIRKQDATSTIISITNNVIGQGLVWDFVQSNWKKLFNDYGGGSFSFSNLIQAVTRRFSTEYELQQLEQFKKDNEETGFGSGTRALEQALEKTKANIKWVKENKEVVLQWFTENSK
Method: The inhibition of the enzymatic activity of aminopeptidase N (APN) was measured by using purified, recombinant human enzyme (purified from transfected ECV cells, final enzyme concentration approx. 1 nM). […] The assay was performed in 0.05M TRIS/HCl puffer pH 7.5, supplemented with 0.05% Triton (v/v), 0.05% BSA (w/v), 2 mM MgCl2.
The aminopeptidase acitivities wer assessed by the hydrolysis of the fluorogenic substrates H-Ala-4-amino-7-methyl coumarine (abbreviation of fluorogenic group AMC; purchased from Bachem) or (Ala-)2-Rhodamine 110 (abbreviation R110). The final substrate concentrations were again 50 and 1 μM, respectively.
as §3
The release of the fluorescent hydrolysis products AMC and R110 was measured as described above for DPIV substrates.

[3] = system: purified, recombinant DP8 and DP9; assay: Inhibition of enzymatic activity of DP8/9; format: biochemical; settings: highest test item concentration 25 μM; for IC50: read-out: meas. IC50 (DP8/9)
Method: as §1, §2, §3, §4

[4] = molecular target: T3, cytosolic aminopeptidase (cAAP) purified from Jurkat cells (Homo sapiens, UniProt P55786); assay: Inhibition of enzymatic activity of cytosolic aminopeptidase (cAAP); format: biochemical; settings: highest test item concentration 25 μM; for IC50: read-out: meas. IC50 (cAAP)
T3 construct: The cytosolic aminopeptidase (cAAP) was purified from Jurkat cells; endogenous in cells; host or cells: Jurkat cells (enzyme purified from them)
T3 sequence (P55786 whole entry): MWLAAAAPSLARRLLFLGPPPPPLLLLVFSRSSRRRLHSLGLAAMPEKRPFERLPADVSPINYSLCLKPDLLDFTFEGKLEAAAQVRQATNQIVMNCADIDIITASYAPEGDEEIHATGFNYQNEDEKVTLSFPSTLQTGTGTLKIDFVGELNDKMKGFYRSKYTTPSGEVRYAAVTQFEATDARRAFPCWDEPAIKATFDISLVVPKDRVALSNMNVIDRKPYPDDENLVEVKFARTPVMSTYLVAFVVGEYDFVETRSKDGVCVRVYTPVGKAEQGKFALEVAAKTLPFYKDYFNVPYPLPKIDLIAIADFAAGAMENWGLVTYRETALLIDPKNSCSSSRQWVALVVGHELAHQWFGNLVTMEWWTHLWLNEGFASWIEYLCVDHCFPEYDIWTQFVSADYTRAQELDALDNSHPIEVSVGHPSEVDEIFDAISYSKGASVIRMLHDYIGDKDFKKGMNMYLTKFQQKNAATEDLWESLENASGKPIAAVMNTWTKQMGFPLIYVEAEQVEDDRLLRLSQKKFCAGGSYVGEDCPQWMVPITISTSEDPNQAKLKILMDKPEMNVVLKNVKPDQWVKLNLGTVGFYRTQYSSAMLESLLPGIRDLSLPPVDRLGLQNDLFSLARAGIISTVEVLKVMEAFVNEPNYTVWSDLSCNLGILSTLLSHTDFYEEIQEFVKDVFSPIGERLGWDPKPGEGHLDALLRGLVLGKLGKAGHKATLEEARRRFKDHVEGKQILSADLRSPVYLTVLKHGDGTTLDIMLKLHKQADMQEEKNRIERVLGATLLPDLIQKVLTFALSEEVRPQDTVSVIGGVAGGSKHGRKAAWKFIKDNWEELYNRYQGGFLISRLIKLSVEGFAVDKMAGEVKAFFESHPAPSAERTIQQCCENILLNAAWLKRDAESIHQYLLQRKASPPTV

T lymphocytes (T cells) = assay: Suppression of DNA synthesis of PHA-stimulated T lymphocytes; format: cell-based; settings: tritium thymidine incorporation, read-out: Supp. DNA Synt. T-cell IC50
Method: Peripheral blood mononuclear cells (PBMC) from healthy human volunteers were freshly isolated by density gradient centrifugation. T lymphocytes (T cells) were isolated from PBMC fractions via nylon wool adherence. Both cell populations were cultured in serum free lymphocyte medium (AIMV medium, Invitrogen) and stimulated by addition of 1 μg/ml Phytohemagglutinine for 48 hours in 96 well flat-bottom microtiter plates. Test compounds were added at concentration ranges from 0.1 up to 250 μM over the total assay period.
DNA synthesis of proliferating PBMC was assessed by incorporation of nucleotide analogue bromdesoxyuridine (BrdU) and subsequent detection of BrdU by ELISA technique (Cell Proliferation Biotrak™ ELISA system, GE Health Care) according to the protocol of the manufacturer. DNA synthesis of proliferating T cells was determined by incorporation of radio labelled tritium thymidine and subsequent radio detection.
Data output was based on raw data and calculation of relative proliferation response in relation to PHA-activated T cells in the absence of test compound (100% control). The IC50 value of proliferation suppression was assessed by graphical evaluation.

NHEK cells = assay: Inhibition of DNA synthesis and proliferation of normal human epidermal keratinocytes (NHEK); format: cell-based; settings: EGF-stimulated NHEK, BrdU incorporation, read-out: Supp. DNA Synt. NHEK IC50
Method: NHEK cells (primary cells from person) were purchased from PromoCell. For these assay the adherent cells were cultured in serum-free Keratinocyte Growth medium 2 supplemented with epidermal growth factor (EGF) and bovine pituitary extract for 48 hours in flat-bottom microtiter plates. EGF stimulates the DNA synthesis and proliferation of these cells. Test items were added in concentrations from 0.1 up to 100 μM.
The DNA synthesis was assessed by incorporation of bromdesoxyuridine (BrdU) and subsequent detection of BrdU by ELISA technique. Based on these raw data the relative proliferation response in relation to cells cultured in the absence of test compound (100% control) was calculated. IC50 values of proliferation suppression were assessed by computer-assisted graphical evaluation.

SZ95 cells = assay: Inhibition of DNA synthesis and proliferation of immortalized human sebocytes SZ95; format: cell-based; settings: EGF-stimulated SZ95 sebocytes, tritium thymidine incorporation, read-out: Supp. DNA Synt. SZ95 IC50
Method: The immortalized human sebocyte line SZ95 was provided by Prof. C Zouboulis [C C Zouboulis, H Seltmann, H Neitzel, C E Orfanos, Establishment and characterization of an immortalized human sebaceous gland cell line (SZ95). J. Invest. Dermatol. 113(6):1011-1020 (1999), the entire disclosure of which is incorporated by reference herein]. These adherent growing cells were cultured in serum-free Sebomed Complete (Biochrom). Recombinant EGF was added in order to stimulate DNA synthesis and proliferation of the SZ95 cells. Test items were added in concentrations from 0.1 up to 100 μM.
The DNA synthesis of proliferating cells was detected by incorporation of radiolabelled tritium thymidine (3HT) and counting at a beta counter. Based on these raw data the relative proliferation response in relation to cells cultured in the absence of test compound (100% control) was calculated. IC50 values of proliferation suppression were assessed by computer-assisted graphical evaluation.

[5] = PHA-stimulated human T cells, 48 hours

| Compound | meas. IC50 (DPIV) [1] | meas. IC50 (APN) [2] | meas. IC50 (DP8/9) [3] | meas. IC50 (cAAP) [4] | IC50 [2] [µM] | IC50 [3] [µM] | IC50 [4] [µM] | IC50 (T lymphocytes (T cells); Homo sapiens, T-cell, 48 h) [µM] | IC50 [1] [µM] | IC50 (T lymphocytes (T cells); [5]) [µM] | IC50 (NHEK cells; 48 hours) [µM] | IC50 (SZ95 cells) [µM] | IC50 (NHEK cells; Homo sapiens, NHEK, 48 h) [µM] | IC50 (SZ95 cells; Homo sapiens) [µM] | IC50 (T lymphocytes (T cells); T-cell, PHA-stimulated human T cells, 48 hours) [µM] | IC50 (NHEK cells; Homo sapiens, 48 hours) [µM] |
| --- | --- | --- | --- | --- | --- | --- | --- | --- | --- | --- | --- | --- | --- | --- | --- | --- |
| CC(C)(CNC(=O)CC(Cc1cc(F)ccc1F)NC(=O)OC(C)(C)C)CNC(=O)C(O)C(COCc1ccccc1)NC(=O)OC(C)(C)C (stereo not drawn) [Compound C19.024] | No in- hibition | no in- hibition | no in- hibition | no in- hibition | – | – | – | – | – | 11.4 | 21.1 | 13.3 | – | – | – | – |
| CC(C)(CNC(=O)CC(Cc1cc(F)ccc1F)NC(=O)OC(C)(C)C)CNC(=O)C(O)C(COCc1ccccc1)NC(=O)OC(C)(C)C (stereo not drawn) [Compound C19.025] | No in- hibition | no in- hibition | no in- hibition | no in- hibition | – | – | – | – | – | 12.3 | 17.3 | 15.4 | – | – | – | – |
| CC(C)(CNC(=O)CC(Cc1cc(F)ccc1F)Nc1ccc([N+](=O)[O-])c2nonc12)CNC(=O)C(O)C(COCc1ccccc1)Nc1ccc([N+](=O)[O-])c2nonc12 (stereo not drawn) [Compound C19.030] | No in- hibition | no in- hibition | no in- hibition | no in- hibition | – | – | – | – | – | – | – | – | – | 29.7 | 18.2 | 7.55 |
| NC(CCCCNC(=O)C(O)C(N)Cc1ccccc1)C(=O)N1CCSC1 (stereo not drawn) [Compound C21.001] | – | – | – | – | 0.178 | 0.02 | 0.066 | 90.1 | 0.11 | – | – | – | 77 | 65.5 | – | – |
| CC(C)(C)OC(=O)NC(CCCCNC(=O)C(O)C(Cc1ccccc1)NC(=O)OC(C)(C)C)C(=O)N1CCSC1 (stereo not drawn) [Compound C21.002] | no in- hibition | no in- hibition | no in- hibition | no in- hibition | – | – | – | 55.1 | – | – | – | – | 49.3 | 61.6 | – | – |
| CC(C)(C)OC(=O)NC(CCCCNC(=O)c1cccc(NC(=O)C(O)C(Cc2ccccc2)NC(=O)OC(C)(C)C)c1)C(=O)N1CCSC1 (stereo not drawn) [Compound C21.004] | no in- hibition | no in- hibition | no in- hibition | no in- hibition | – | – | – | 12 | – | – | – | – | 13.9 | 19.4 | – | – |
| CC(=O)SC(C(=O)NCCCCC(NC(=O)OC(C)(C)C)C(=O)N1CCSC1)C(Cc1ccccc1)NC(=O)OC(C)(C)C (stereo not drawn) [Compound C22.001] | no in- hibition | no in- hibition | no in- hibition | – | – | – | 0.57 | 136 | – | – | – | – | ≥ 200 | 57.1 | – | – |
| CC(C)(C)OC(=O)NC(CCCCNC(=O)C(S)C(Cc1ccccc1)NC(=O)OC(C)(C)C)C(=O)N1CCSC1 (stereo not drawn) [Compound C22.002] | no in- hibition | no in- hibition | no in- hibition | – | – | – | 1 | 54.1 | – | – | – | – | 85.2 | ≥ 200 | – | – |
| NC(CCCCNC(=O)C(S)C(N)Cc1ccccc1)C(=O)N1CCSC1 (stereo not drawn) [Compound C22.003] | – | – | – | – | 3.79 | 0.34 | 3.5 | 30.2 | 0.032 | – | – | – | 38.9 | 75.2 | – | – |

Continued, in another order:

| meas. IC50 (DPIV) [1] | meas. IC50 (APN) [2] | meas. IC50 (DP8/9) [3] | meas. IC50 (cAAP) [4] | IC50 [2] [µM] | IC50 [3] [µM] | IC50 [4] [µM] | IC50 (T lymphocytes (T cells); Homo sapiens, T-cell, 48 h) [µM] | IC50 [1] [µM] | Compound | IC50 (T lymphocytes (T cells); [5]) [µM] | IC50 (NHEK cells; 48 hours) [µM] | IC50 (SZ95 cells) [µM] | IC50 (NHEK cells; Homo sapiens, NHEK, 48 h) [µM] | IC50 (SZ95 cells; Homo sapiens) [µM] | IC50 (T lymphocytes (T cells); T-cell, PHA-stimulated human T cells, 48 hours) [µM] | IC50 (NHEK cells; Homo sapiens, 48 hours) [µM] |
| --- | --- | --- | --- | --- | --- | --- | --- | --- | --- | --- | --- | --- | --- | --- | --- | --- |
| No in- hibition | – | – | – | 1 | 7.3 | 0.5 | 12.2 | – | CC(C)(CNC(=O)CC(Cc1cc(F)ccc1F)NC(=O)OCc1ccccc1)CNC(=O)C(O)C(N)COCc1ccccc1 (stereo not drawn) [Compound C19.026] | – | – | – | 8.9 | 22.7 | – | – |
| No in- hibition | no in- hibition | no in- hibition | no in- hibition | – | – | – | 5.2 | – | CC(C)(CNC(=O)CC(Cc1cc(F)ccc1F)NC(=O)OCc1ccccc1)CNC(=O)C(O)C(COCc1ccccc1)NC(=O)OC(C)(C)C (stereo not drawn) [Compound C19.027] | – | – | – | 42.1 | 8.53 | – | – |
| – | no in- hibition | – | no in- hibition | – | 1.4 | – | 9 | 0.17 | CC(C)(CNC(=O)CC(N)Cc1cc(F)ccc1F)CNC(=O)C(O)C(COCc1ccccc1)NC(=O)OC(C)(C)C (stereo not drawn) [Compound C19.028] | – | – | – | 31.4 | 49.4 | – | – |
| – | – | – | – | 0.59 | 24.3 | 0.33 | 29.4 | 14.5 | CC(C)NC(CC(=O)NCC(C)(C)CNC(=O)C(O)C(N)COCc1ccccc1)Cc1cc(F)ccc1F (stereo not drawn) [Compound C19.029] | – | – | – | 34.8 | 92.7 | – | – |
| – | – | – | – | 0.012 | 13.3 | 0.18 | 58.2 | 2.3 | NC(CNC(=O)c1cccc(NC(=O)C(O)C(N)COCc2ccccc2)c1)Cc1cc(F)ccc1F (stereo not drawn) [Compound C19.031] | – | – | – | 20.1 | ≥ 119 | – | – |
| – | – | – | – | 0.62 | 0.054 | 0.13 | 157 | 0.07 | NC(CCCCNC(=O)c1cccc(NC(=O)C(O)C(N)Cc2ccccc2)c1)C(=O)N1CCSC1 (stereo not drawn) [Compound C21.003] | – | – | – | 62 | ≥ 200 | – | – |
